Test results: patent US20230203523A1, “HPPD INHIBITOR HERBICIDE TOLERANT PLANT” (priority 2021, published 2023)

Experiments:
Type in all cases: in vivo, Sorghum bicolor
[1] = tested on: grain sorghum genotype BV94-4045 (susceptible wild type); assay: Field phytotoxicity trial, aerial biomass as % of untreated control, wild type sorghum; conditions: BV94-4045 wild type; for Biomass % Control: field; for phytotoxicity / biomass accumulation (in words): POE, 20 days after herbicide application, 4×
Method: (§1) To determine the spectrum of tolerance to different HPPD herbicide site of action (SOA) active ingredients (AI) in a sorghum HPPD tolerant inbred BV10-11924 (ADV-HT2) following methodology was used.
(§2) Two grain sorghum genotypes were evaluated under field conditions with herbicide pre-emergency (PRE) and post-emergency (POE) treatments of 6 active ingredients of HPPD SOA herbicide families for sorghum crop phytotoxicity trials.
(§3) The experiment design was a split-plot design with 2 replicates where: Herbicide treatment was defined as Main plot, and Genotype as split plot. Plot size were 10 square meters each, this is 4 row/plot, 5 meters length and 0.52 meters between rows.
(§4) Both genotypes (Table 1) were sown in the Advanta R&D Station in Venado Tuerto, Argentina using an experimental planter. Wild type BV94-4045 (line used for mutagenesis in example 1) is a maintainer elite inbred line Advanta's proprietary.
(§5) All herbicide treatments (Table 2) were applied same day of sowing date for herbicide PRE treatments, and 15 days after sowing for POE treatments using an experimental sprayer in optimal weather conditions. The herbicides rates were defined as: 1×, 2× and 4×. Along with the herbicides, there were applied specific surfactant when they were recommended by the supplier for each herbicide. In all cases, 1× rate was defined based on the recommended dose in herbicide label. […]
(§6) For Aerial Biomass (Biomass) measurements, all plants from two central rows each plot were harvested by cutting them at ground level and weighted before and after drying at 60° C. for 48 h in order to determine the shoot dry mass reduction of each treatment. All data were standardized using the Aerial Biomass average as the % of Control plots. For the calculation as the percentage of its respective untreated control was used the following function:
(§7) Biomass % Control=(Biomassgh/Biomassg Control)*100
(§8) where “Biomass % Control” is the Aerial Biomass expressed as percent of each genotype in the Control plot without any herbicide application (Table 3); “Biomassgh” is the Aerial Biomass is the mean for each genotype*herbicide treatment combination and “Biomassg Control” is the Aerial Biomass mean for each genotype in the treatment CONTROL (untreated).

[2] = tested on: grain sorghum genotype BV10-11924 (mutant ADV-HT2); assay: Field phytotoxicity trial, aerial biomass as % of untreated control, mutant ADV-HT2 sorghum; conditions: for Biomass % Control: field
Method: as §1, §2, §3, §4, §5, §6, §7, §8

[3] = tested on: M3 sorghum plants of furrow VT09-8800 (BV94-4045EMS1-256-2, ADV-HT2); assay: Herbicide spray selection of EMS-mutagenised M3 sorghum progeny; conditions: sprayed with 33.6 ml active ingredient/ha; six M3 plants of furrow VT09-8800
Method: In order to obtain herbicide-tolerant plants, endogamic sorghum (Sorghum bicolor) line BV94-4045 (Advanta proprietary elite line) seeds were treated with an aqueous solution of ethyl methanesulfonate (EMS). Treated seeds were planted and self-pollinated for advancing generation. Eight hundred nighty five M1 plants were selected, and two seeds of each plant were planted in a nursery, thereby obtaining a total of 1790 M2 plants. Pollen from both plants of each pair were collected, and the bulk was used for pollinating both plants of the pair. A bulk of M3 seeds from each pair was obtained from the 895 pollinated M2 pairs of plants. A total of 895 furrows were planted with the M3 progeny. Fifty plants from each M3 furrow were sprayed with 33.6 ml active ingredient /ha of topramezone. […] The genealogy of the resistant plants from the furrows was identified and they were designated BV94-4045EMS1-256-2 (hereinafter referred to as ADV-HT2). Herbicide tolerant M7 mutant plants and seeds selected from the original ADV-HT2 mutant, designated as: Material ID=VT10-11924-1-BK and Inbred Code=BV10-11924, were obtained and deposited with the NCIMB collection with Access No. NCIMB 43919 under the terms of the Budapest Treaty,
Thirty-two thousand pre-germinated sorghum seeds from endogamic line BV94-4045 were dipped into an aqueous solution of 0.05% v/v ethyl methanesulfonate (EMS) for 16 hours. […]

[4] = PRE application (day of sowing), 1X = label recommended rate
[5] = PRE, 1× rate, 20 days after the application
[6] = POE application (15 days after sowing), 1X = label recommended rate
[7] = POE, 20 days after herbicide application, rates 1×, 2×, and 4×

Compound | Biomass % Control [1, 4] | Biomass % Control ([1]; PRE application, 2X label rate) | Biomass % Control ([1]; PRE application, 4X label rate) | Biomass % Control [2, 4] | Biomass % Control ([2]; PRE application, 2X label rate) | Biomass % Control ([2]; PRE application, 4X label rate) | phytotoxicity / biomass accumulation (in words) [2, 5] | Biomass % Control [1, 6] | Biomass % Control ([1]; POE application, 2X label rate) | Biomass % Control ([1]; POE application, 4X label rate) | phytotoxicity / biomass accumulation (in words) ([1]; rates 2×) | Biomass % Control [2, 6] | Biomass % Control ([2]; POE application, 2X label rate) | Biomass % Control ([2]; POE application, 4X label rate) | phytotoxicity / biomass accumulation (in words) [2, 7] | phytotoxicity / biomass accumulation (in words) ([1]; rates 1×, 2×) | plant growth and symptoms after treatment with herbicide (in words) [3]
COCCOCc1nc(C(F)(F)F)ccc1C(=O)C1=C(O)C2CCC(C2)C1=O (stereo not drawn) [BYC, BICYCLOPIRONA] | 65% | 10% | 1% | 127% | 46% | 15% | no significative reduction in biomass accumulation | – | – | – | – | – | – | – | – | – | –
CS(=O)(=O)c1cc(C(F)(F)F)ccc1C(=O)c1cnoc1C1CC1 [ISO, ISOXAFLUTOLE] | 63% | 28% | 10% | 84% | 68% | 38% | no significative reduction in biomass accumulation | – | – | – | – | – | – | – | – | – | –
CS(=O)(=O)c1ccc(C(=O)C2C(=O)CCCC2=O)c([N+](=O)[O-])c1 [MES, MESOTRIONE] | – | – | – | – | – | – | – | 108% | 32% | 13% | significant reduction in the biomass accumulation | 146% | 106% | 84% | tolerant without phytotoxicity nor reduction in the biomass accumulation | – | –
CCn1ncc(C(=O)c2ccc(S(C)(=O)=O)c(OCCOC)c2C)c1OC(C)OC(=O)OC (stereo not drawn) [TOL, TOLPYRALATE] | – | – | – | – | – | – | – | 76% | 60% | 64% | – | 117% | 92% | 127% | tolerant without phytotoxicity nor reduction in the biomass accumulation | significant reduction in the biomass accumulation | –
Cc1c(C(=O)c2cnn(C)c2O)ccc(S(C)(=O)=O)c1C1=NOCC1 [TOP, TOPRAMEZONE] | – | – | – | – | – | – | – | 77% | 51% | 39% | – | 126% | 107% | 117% | tolerant without phytotoxicity nor reduction in the biomass accumulation | significant reduction in the biomass accumulation | normal growth and absence of symptoms
